# In US11395821B2, “Treatment of EGFR-driven cancer with fewer side effects” (G1 Therapeutics, Inc., priority 2017, dated 2022):
# Entries after “also recorded” stand apart in the source; their conditions may differ.
# Assays:
# [1] = test system: H1975 (EGFR^L858R/T790M NSCLC Model); assay: Example 3: Compound IV added to afatinib after resistance in H1975 tumor bearing mice; type: in vivo
# Procedure: EGFRL858R/T790M NSCLC model (H1975) tumor bearing mice were treated with daily oral doses of vehicle or afatinib (20 mg/kg). Once tumors became resistant to afatinib (˜D18), Compound IV (100 mg/kg) was added to the treatment regimen. Tumors were measured […]. Data is plotted to compare tumor growth in each cohort during the treatment. The x-axis is days of treatment measured in time and the y-axis is tumor volume measured in mm^3.
# Compound IV in combination with the EGFR-TKI afatinib was tested in an EGFR^L858R/T790M NSCLC model to determine the ability of the combination to reverse afatinib resistance. H1975 (EGFR^L858R/T790M NSCLC Model) tumor bearing mice were treated daily with 20 mg/kg of afatinib. Once tumors became resistant to afatinib (about D18), Compound IV (100 mg/kg) was added to the treatment regimen. Tumors were measured twice a week for 40 days. Data is plotted to compare tumor growth in each cohort during treatment.
# [2] = test system: EGFR^ex20ins PDX NSCLC tumor fragments (LU0387, CrownBio); assay: Example 5: Compound IV +/- osimertinib in EGFR ex20ins PDX model; type: in vivo, BALB/c nude mice; settings: once daily oral gavage
# Description: The x-axis is days from initiation measured in time and the y-axis is mean tumor volume measured in mm^3.
# Tumors continued to be measured until they reached tumor burden (>3000 mm3).
compound,measurement,setting,value
CC(C)N1CCN(c2ccc(Nc3ncc4cc5n(c4n3)C3(CCCCC3)CNC5=O)nc2)CC1 [Compound IV],acquired resistance to afatinib (tumor volume),"[1]; afatinib 20 mg/kg daily, Compound IV 100 mg/kg added at about D18, 40 days",reverses acquired resistance to afatinib
same,"decrease of tumor volume, combination vs Compound IV alone and afatinib alone",[1]; as worded in Example 3,more effective at decreasing tumor volume
same,afatinib efficacy and time to resistance (tumor volume),[1]; as worded in Example 3: Compound IV 50 or 100 mg/kg in combination with afatinib,increased the afatinib efficacy and extended the time to resistance
same,"tumor growth vs vehicle, combination",[2]; Compound IV 100 mg/kg + osimertinib 10 mg/kg,significant tumor growth delay; also recorded: delays tumor growth
same,"tumor growth vs vehicle, single agent","[2]; 17 days, Compound IV 100 mg/kg or osimertinib 10 mg/kg alone",did not cause an effect
